Measured values as given in ChEMBL document CHEMBL3886382, “PDE 10a inhibitors for the treatment of type II diabetes” (2015).

Columns and labels:
[1] = molecular target: T1, cAMP and cAMP-inhibited cGMP 3',5'-cyclic phosphodiesterase 10A (Rattus norvegicus, UniProt Q9QYJ6); experiment: In Vitro Assay: Rat recombinant PDE10a (rPDE10a) was expressed in Sf9 cells using a recombinant rPDE10a baculovirus construct. Cells were harvested after 48 h of infection and the rPDE10a protein was purified by metal chelate chromatography on Ni-sepharose 6FF. Tested compounds were dissolved and diluted in 100% DMSO to a concentration 100 fold of the final concentration in the assay. Compound dilutions (0.4 uL) were added in 384 well plates to 20 uL of incubation buffer (50 mM Tris pH 7.8, 8.3 mM MgCl2, 1.7 mM EGTA). 10 uL of rPDE10a enzyme in incubation buffer was added and the reaction was started by addition of 10 uL substrate to a final concentration of 60 nM cAMP and 0.008 uCi3H-cAMP. The reaction was incubated for 60 min at rt. After incubation, the reaction was stopped with 20 uL of 17.8 mg/mL PDE SPA beads. After sedimentation of the beads during 30 min the radioactivity was measured in a Perkin Elmer Topcount scintillation counter.
T1 sequence (Q9QYJ6 whole entry): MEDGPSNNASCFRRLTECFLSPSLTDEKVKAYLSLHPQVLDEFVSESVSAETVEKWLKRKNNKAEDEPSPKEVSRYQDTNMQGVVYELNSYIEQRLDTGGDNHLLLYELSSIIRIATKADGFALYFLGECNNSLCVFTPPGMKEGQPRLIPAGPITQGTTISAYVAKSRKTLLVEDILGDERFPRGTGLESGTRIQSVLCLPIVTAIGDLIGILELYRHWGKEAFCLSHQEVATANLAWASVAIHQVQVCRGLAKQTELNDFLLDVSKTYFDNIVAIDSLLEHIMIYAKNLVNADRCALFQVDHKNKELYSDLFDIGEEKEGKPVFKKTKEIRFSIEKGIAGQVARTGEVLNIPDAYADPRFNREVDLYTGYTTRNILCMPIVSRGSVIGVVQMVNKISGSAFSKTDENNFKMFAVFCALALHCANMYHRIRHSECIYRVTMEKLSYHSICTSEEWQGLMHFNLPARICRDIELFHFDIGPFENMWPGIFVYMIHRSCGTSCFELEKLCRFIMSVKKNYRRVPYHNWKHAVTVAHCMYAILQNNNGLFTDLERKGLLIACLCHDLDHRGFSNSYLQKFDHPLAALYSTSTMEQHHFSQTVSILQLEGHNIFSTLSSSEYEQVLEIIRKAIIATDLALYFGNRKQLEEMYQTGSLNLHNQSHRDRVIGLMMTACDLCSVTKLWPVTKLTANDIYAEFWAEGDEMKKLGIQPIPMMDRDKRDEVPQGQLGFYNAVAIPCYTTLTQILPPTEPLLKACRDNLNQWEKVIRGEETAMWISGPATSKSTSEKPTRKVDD

[2] = molecular target: cAMP and cAMP-inhibited cGMP 3',5'-cyclic phosphodiesterase 10A (Homo sapiens, UniProt Q9Y233); experiment: In Vitro Assay: Human recombinant PDE10A2 was expressed in Sf9 cells, using a recombinant baculovirus construct containing the full length sequence containing a 6ÿHis sequence following the start Met to allow metal affinity purification of the recombinant protein. Cells were harvested and the phosphodiesterase protein was purified by metal chelate chromatography on Ni-sepharose 6FF.The affinity of the compounds of Formula (I) for phophodiesterases (PDE) was measured by a scintillation proximity assay (SPA). PDE Yttrium Silicate SPA beads allow PDE activity to be measured by direct binding of the primary phosphate groups of non-cyclic AMP or GMP to the beads via a complex iron chelation mechanism. The amount of bound tritiated product ([3H]-AMP) is measured by liquid scintillation counting.The compounds were dissolved and diluted in 100% DMSO in polystyrene plates to a concentration of 100-fold the final concentration in the assay. Human PDE10A enzyme solution (10 uL) was added.
Sequence of cAMP and cAMP-inhibited cGMP 3',5'-cyclic phosphodiesterase 10A (Homo sapiens, UniProt Q9Y233) (Q9Y233 whole entry): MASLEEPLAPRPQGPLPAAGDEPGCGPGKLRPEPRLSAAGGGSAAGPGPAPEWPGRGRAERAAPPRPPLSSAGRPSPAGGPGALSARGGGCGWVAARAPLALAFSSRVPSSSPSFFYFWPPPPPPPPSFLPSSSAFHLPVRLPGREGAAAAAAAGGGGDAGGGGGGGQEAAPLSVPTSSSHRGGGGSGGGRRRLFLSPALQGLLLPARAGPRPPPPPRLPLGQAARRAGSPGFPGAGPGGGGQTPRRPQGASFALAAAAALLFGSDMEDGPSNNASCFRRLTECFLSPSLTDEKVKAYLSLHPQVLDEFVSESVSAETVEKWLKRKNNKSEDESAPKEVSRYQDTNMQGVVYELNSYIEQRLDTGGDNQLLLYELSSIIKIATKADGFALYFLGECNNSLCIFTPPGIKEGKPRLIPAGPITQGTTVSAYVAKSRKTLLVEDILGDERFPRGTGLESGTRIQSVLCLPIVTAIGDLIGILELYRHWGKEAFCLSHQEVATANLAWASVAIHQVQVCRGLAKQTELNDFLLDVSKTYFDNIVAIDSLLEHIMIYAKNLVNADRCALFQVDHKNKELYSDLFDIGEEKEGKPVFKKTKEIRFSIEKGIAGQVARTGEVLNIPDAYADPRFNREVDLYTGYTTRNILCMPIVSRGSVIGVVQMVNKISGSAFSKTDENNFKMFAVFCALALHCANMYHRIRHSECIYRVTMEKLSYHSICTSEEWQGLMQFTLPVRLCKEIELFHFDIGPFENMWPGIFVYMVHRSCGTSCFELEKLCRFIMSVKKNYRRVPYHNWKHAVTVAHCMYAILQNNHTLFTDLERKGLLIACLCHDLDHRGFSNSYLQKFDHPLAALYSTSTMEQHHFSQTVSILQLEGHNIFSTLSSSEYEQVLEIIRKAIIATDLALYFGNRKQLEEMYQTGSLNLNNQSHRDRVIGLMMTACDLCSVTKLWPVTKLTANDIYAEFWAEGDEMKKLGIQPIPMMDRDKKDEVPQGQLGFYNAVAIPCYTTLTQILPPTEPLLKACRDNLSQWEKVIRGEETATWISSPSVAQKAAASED

Compound | IC50 [1] [nM] | IC50 [2] [nM]
N#Cc1ccc(-c2c(/C=C/c3ccc4c(C(=O)O)cccc4n3)nc3c(N4CCOCC4)ccnn23)cc1 | 1 | 
O=C(O)c1cccc2nc(/C=C/c3nc4c(N5CCOCC5)ccnn4c3-c3ccccc3)ccc12 | 1 | < 1
O=C(O)CN1CCC(c2c(C#Cc3ccc4ccccc4n3)nc3c(N4CCOCC4)ccnn23)CC1 | 5 | 7
C(=C\c1nc2c(N3CCOCC3)ccnn2c1-c1ccc(Sc2nnc[nH]2)nc1)/c1ccc2ccccc2n1 | 4 | 6

The remaining lines, values ahead:

IC50 [1] [nM] | IC50 [2] [nM] | Compound
1 |  | O=C(O)c1ccc(-c2c(CSc3ccc4ccccc4n3)nc3c(N4CCOCC4)ccnn23)cc1
2 |  | O=C(O)c1cccc2nc(/C=C/c3nc4c(N5CCOCC5)cc(Cl)nn4c3-c3cccnc3)ccc12
1 | 3 | C(#Cc1nc2c(N3CCOCC3)ccnn2c1-c1ccc(N2CCNCC2)nc1)c1ccc2ccccc2n1
 | 1 | COc1cccc(-c2c(/C=C/c3ccc4c(C(=O)O)cccc4n3)nc3c(N4CCOCC4)ccnn23)c1
